Test results from ChEMBL document CHEMBL3885861, “Open TG-GATES”.

Species: Rattus norvegicus
Assay: Open TG-GATES - Regimen: Single
Assay type: toxicity, organism-based, Sprague-Dawley
Design: regimen Single, gender Male, age 6 weeks
Conditions: in vivo, po, 30 mg/kg, route gavage, dose level Low; for APTT / Bas / Eos / Fbg / Hb / Ht / Lym / MCH / MCHC / MCV / Mono / Neu / PT / Plat / RBC / Ret / WBC: tissue Blood; for KIDNEY_L / KIDNEY_R / KIDNEY_TOTAL: tissue Kidney; for LIVER: tissue Liver; for A/G / ALP / ALT / AST / BUN / CRE / Ca / Cl / DBIL / GLC / IP / K / LDH / Na / PL / RALB / TBIL / TC / TG / TP / gamma-GTP: tissue Plasma

## CCc1oc2ccccc2c1C(=O)c1cc(I)c(O)c(I)c1 [BENZIODARONE]
3 h
  TERMINAL_BW: 212.2 g
  APTT: 16.6 s
  Bas: 0%
  Eos: 1%
  Fbg: 202.4 mg/dL
  Hb: 14 g/dL
  Ht: 41.5%
  Lym: 74.4%
  MCH: 21.7 pg
  MCHC: 33.8%
  MCV: 64.3 fL
  Mono: 10%
  Neu: 14.8%
  PT: 12 s
  Plat: 117.6 x10_4/uL
  RBC: 645.8 x10_4/ul
  Ret: 8.1%
  WBC: 97.8 x10_2/uL
  KIDNEY_L: 1 g
  KIDNEY_R: 1 g
  KIDNEY_TOTAL: 2 g
  LIVER: 10 g
  A/G: 2.1
  ALP: 939.2 IU/L
  ALT: 33.8 IU/L
  AST: 66.6 IU/L
  BUN: 11 mg/dL
  CRE: 0.5 mg/dL
  Ca: 10.6 mg/dL
  Cl: 103.4 meq/L
  DBIL: 0 mg/dL
  GLC: 192.8 mg/dL
  IP: 9.7 mg/dL
  K: 4.4 meq/L
  LDH: 109.6 IU/L
  Na: 141 meq/L
  PL: 131.2 mg/dL
  RALB: 3.7 g/dL
  TBIL: 0.4 mg/dL
  TC: 73 mg/dL
  TG: 56.8 mg/dL
  TP: 5.4 g/dL
  gamma-GTP: 2 IU/L
6 h
  TERMINAL_BW: 213.4 g
  APTT: 16.4 s
  Bas: 0%
  Eos: 1%
  Fbg: 218.2 mg/dL
  Hb: 13.7 g/dL
  Ht: 41%
  Lym: 82%
  MCH: 21.9 pg
  MCHC: 33.4%
  MCV: 65.6 fL
  Mono: 7.8%
  Neu: 9.8%
  PT: 12 s
  Plat: 108.5 x10_4/uL
  RBC: 625.4 x10_4/ul
  Ret: 10.8%
  WBC: 102.6 x10_2/uL
  KIDNEY_L: 1 g
  KIDNEY_R: 1 g
  KIDNEY_TOTAL: 1.9 g
  LIVER: 9.8 g
  A/G: 2.2
  ALP: 728.8 IU/L
  ALT: 31 IU/L
  AST: 65.6 IU/L
  BUN: 11.8 mg/dL
  CRE: 0.5 mg/dL
  Ca: 10.7 mg/dL
  Cl: 105 meq/L
  DBIL: 0.03 mg/dL
  GLC: 183.4 mg/dL
  IP: 9.8 mg/dL
  K: 4.6 meq/L
  LDH: 105.2 IU/L
  Na: 141.6 meq/L
  PL: 130.6 mg/dL
  RALB: 3.7 g/dL
  TBIL: 0.3 mg/dL
  TC: 76.6 mg/dL
  TG: 55.2 mg/dL
  TP: 5.4 g/dL
  gamma-GTP: 1.8 IU/L
9 h
  TERMINAL_BW: 210.3 g
  APTT: 17.9 s
  Bas: 0%
  Eos: 1%
  Fbg: 203.2 mg/dL
  Hb: 13.5 g/dL
  Ht: 40.3%
  Lym: 76.8%
  MCH: 21.7 pg
  MCHC: 33.6%
  MCV: 64.5 fL
  Mono: 8%
  Neu: 14.6%
  PT: 12 s
  Plat: 110.8 x10_4/uL
  RBC: 624.8 x10_4/ul
  Ret: 8.2%
  WBC: 78 x10_2/uL
  KIDNEY_L: 0.9 g
  KIDNEY_R: 1 g
  KIDNEY_TOTAL: 1.9 g
  LIVER: 9 g
  A/G: 2.2
  ALP: 748.4 IU/L
  ALT: 28.8 IU/L
  AST: 58.6 IU/L
  BUN: 11.4 mg/dL
  CRE: 0.4 mg/dL
  Ca: 10.4 mg/dL
  Cl: 105.4 meq/L
  DBIL: 0.086 mg/dL
  GLC: 198 mg/dL
  IP: 10.4 mg/dL
  K: 4.5 meq/L
  LDH: 88.4 IU/L
  Na: 142.8 meq/L
  PL: 129.2 mg/dL
  RALB: 3.7 g/dL
  TBIL: 0.3 mg/dL
  TC: 67.6 mg/dL
  TG: 48.6 mg/dL
  TP: 5.5 g/dL
  gamma-GTP: 0.8 IU/L
24 h
  TERMINAL_BW: 226.7 g
  APTT: 17.3 s
  Bas: 0%
  Eos: 1%
  Fbg: 206.6 mg/dL
  Hb: 13.4 g/dL
  Ht: 39.2%
  Lym: 76.4%
  MCH: 22.1 pg
  MCHC: 34.2%
  MCV: 64.8 fL
  Mono: 7.4%
  Neu: 15%
  PT: 11.9 s
  Plat: 117.8 x10_4/uL
  RBC: 605 x10_4/ul
  Ret: 8.1%
  WBC: 94 x10_2/uL
  KIDNEY_L: 1 g
  KIDNEY_R: 1 g
  KIDNEY_TOTAL: 2 g
  LIVER: 11.1 g
  A/G: 2.1
  ALP: 882.8 IU/L
  ALT: 34.6 IU/L
  AST: 70.8 IU/L
  BUN: 17.4 mg/dL
  CRE: 0.6 mg/dL
  Ca: 10.6 mg/dL
  Cl: 104.6 meq/L
  DBIL: 0.006 mg/dL
  GLC: 197.2 mg/dL
  IP: 7.4 mg/dL
  K: 4.7 meq/L
  LDH: 95.8 IU/L
  Na: 141 meq/L
  PL: 138.2 mg/dL
  RALB: 3.8 g/dL
  TBIL: 0.3 mg/dL
  TC: 73.2 mg/dL
  TG: 81.6 mg/dL
  TP: 5.6 g/dL
  gamma-GTP: 1 IU/L
